Reference: US20240033328A1, “ACTH IN THE TREATMENT OF AN ADRENOCORTICOTROPIC HORMONE RESPONSIVE PEDIATRIC DISORDER” (Amzell B.V., priority 2020, published 2024)

Key:
Format in all cases: in vivo, healthy adult subjects
[1] = system: cortisol and an adrenal panel of intermediates (DHA, 17-hydroxypregnenolone, 17-hydroxyprogesterone); assay: Phase 1 single ascending dose study: pharmacodynamics (plasma cortisol and adrenal panel of intermediates)
Procedure: This was a Phase 1, single-blind, active-controlled, single ascending dose study to compare the PD effects of the investigational drug AMZ002 with those of H.P. Acthar Gel and Cortrosyn in healthy adult subjects. AMZ002 is a sterile solution for IM injection, formulated to contain 0.5 mg/mL ACTH having the sequence […] Phe, 50 mg/mL dextrose, 10 mg/mL sodium carboxymethylcellulose, and 5 mg/mL phenol (pH 6.4). The concentration of 0.5 mg/mL was chosen to reduce possible errors resulting from the preparation of small dose volumes (e.g., less than 0.4 ml).
The study consisted of 8 cohorts, with 8 subjects per cohort (each a single dose): Cortrosyn 0.25 mg; H.P. Acthar Gel 25 U; or, in an ascending dose fashion, AMZ002 0.15, 0.20, 0.25, 0.30, 0.50, or 0.75 mg. The investigational product (AMZ002) and active comparators (Cortrosyn and H.P. Acthar Gel) were administered via intramuscular (IM) injection to the upper arm. The dose of Cortrosyn (0.25 mg by IM administration), the active control, was intended to produce maximal adrenal stimulation. This is the standard dose for adults and children ≥2 years of age recommended in the 2015 Endocrine Society Clinical Practice Guidelines for diagnostic testing of adrenal insufficiency (same dose whether Cortrosyn is administered intravenously or IM). […] Since 25 U of natural ACTH was expected to elicit […] adrenal response, it was considered the most sensitive dose to determine a pharmacodynamically equivalent dose of AMZ002 in this study. Therefore, this study included a cohort of subjects who received a single dose of 25 U H.P. Acthar Gel (representing the target PD for the investigational drug product in this study).
On Day-1, a single standard dose of dexamethasone (1 mg) was administered orally at approximately midnight (8 hours prior to study drug administration the following day) to suppress endogenous adrenocorticotropic hormone (ACTH) production and remove this as a confounding variable in the measurements. […]
For each PD (pharmacodynamics) analyte (plasma cortisol and an adrenal panel of intermediates [DHA, 17-hydroxypregnenolone, and 17-hydroxyprogesterone]), the following parameters were calculated with the actual time points using a noncompartmental method as appropriate: • Maximum observed PD measurement (Emax); • Time to reach maximum observed PD measurement (TEmax); and • Area under the PD effect-time curve from time 0 to the last quantifiable PD measurement (AUEC0−t).
The PD parameters using baseline-corrected PD measurements were calculated similarly, if applicable. […] The following parameters were also calculated using baseline-corrected PD measurements: • Area under the PD effect-time curve that was above baseline (AUECabove B); and • Total time that response was≥baseline (Timeabove B). […]

[2] = Phase 1 single ascending dose study: plasma pharmacokinetics of syn-ACTH
Procedure: (§1) Subjects who met all of the inclusion criteria and none of the exclusion criteria were enrolled in the study. Safety and tolerability were evaluated throughout the study, including all adverse events (AEs); physical examination findings; vital sign measurements; 12-lead electrocardiogram (ECG) findings; standard clinical laboratory measurements (eg, serum chemistry, hematology, and urinalysis); and injection site evaluations. Immunogenicity, as measured by antidrug antibodies (ADA) were evaluated. PD effects were assessed based on levels of cortisol and an adrenal panel of intermediates (dehydroepiandrosterone [DHA], 17-hydroxypregnenolone, and 17 hydroxyprogesterone). Blood samples for measurement of syn-ACTH concentrations were also collected (AMZ002 cohorts only).
Blood samples were collected prior to dosing on Day 1; at 5, 15, 30, and 45 minutes postdose; and at 1, 1.5, 2, 2.5, 3, 4, 5, 6, 8, 10, 12, 24, 30, 36, and 48 hours postdose.
The following plasma PK (pharmacokinetics) parameters of syn-ACTH were calculated from individual syn-ACTH concentration data for each cohort: • Maximum plasma concentration (Cmax) if the maximum value occurred at more than 1 time point, Cmax was defined as the first value; • Time to Cmax (Tmax); • Terminal elimination constant rate (λz); • Terminal elimination half-life (t1/2), calculated as ln(2)/λz; • AUC from time 0 to the last quantifiable plasma concentration (Clast) (AUClast); • AUC from time 0 to infinity (AUCinf);
Proportion of AUCinf due to extrapolation (%)(AUCextr), calculated as 100×(Clast/λz)/AUCinf; • Apparent clearance (CL/F); calculated as Dose/AUCinf; and • Apparent volume of distribution (Vz/F), calculated as Dose/[λz×AUCinf].

[3] = Phase 1 single ascending dose study: safety and tolerability; details: for safety and tolerability: single IM doses 0.15 mg to 0.75 mg
Procedure: as §1
Safety parameters included all AEs; physical examination findings; vital sign measurements; 12-lead ECG findings; standard clinical laboratory measurements (eg, serum chemistry, hematology, and urinalysis); and injection site evaluations.

[4] = Phase 1 single ascending dose study: immunogenicity (antidrug antibodies); details: single IM dose; consistent with that observed for H.P. Acthar Gel
Procedure: as §1
Blood samples for evaluation of immunogenicity as measured by ADA were obtained at the Treatment Visit (Day 1) (predose), prior to discharge (Day 3), the Follow-Up Visit (Day 8 [+2 days])/Early Termination Visit, and subsequent visits for collection of ADA (Day 15 [+2 days] and Day 29 [+2 days]).

H-SYSMEHFRWGKPVGKKRRPVKVYPNGAEDELAEAFPLEF-OH [AMZ002]
cortisol response compared to 25 U H.P. Acthar Gel, highest levels ([1]; highest dose levels within 0.15 to 0.75 mg, single IM dose, FIG. 1): slightly greater and more sustained effects | cortisol response compared to 25 U H.P. Acthar Gel, lowest levels ([1]; lowest dose levels within 0.15 to 0.75 mg, single IM dose, FIG. 1): maximal effect that is less sustained | DHA response, lower levels compared to higher levels ([1]; single IM dose 0.15 to 0.75 mg, FIG. 2): maximal effect that is less sustained | 17-hydroxypregnenolone response, lower levels compared to higher levels ([1]; single IM dose 0.15 to 0.75 mg, FIG. 3): maximal effect that is less sustained | half-life ([2]; human, plasma, single IM dose, range across dose cohorts, read-out: mean t½): 0.911 to 2.59 h | Tmax ([2]; human, plasma, single IM dose, range across dose cohorts, read-out: median Tmax): 0.08 to 2 h | absorption ([2]; single IM dose): rapidly absorbed | time to mean peak plasma concentrations after dosing ([2]; single IM dose): ≤ 2 h | increase of exposure with increase in dose ([2]; single IM dose 0.15 to 0.75 mg): greater than proportional | deaths, treatment-emergent SAEs, withdrawals due to a TEAE ([3]; single IM doses): no deaths, treatment-emergent serious adverse events (SAEs), or withdrawals due to a treatment emergent adverse event (TEAE) | severity of TEAEs ([3]; single IM doses): mild or moderate | safety and tolerability [3]: safe and well tolerated | safety and tolerability ([3]; listed as ACTH having SEQ ID NO:1): generally safe and well tolerated | incidence of antibody formation (minimum of 1 positive postdose result) [4]: low
